Marks after values point to notes of the source that are not given here.
What was measured:
[1] = system: SGLT2; conditions: read-out: 50% inhibitory concentration (IC50); cited from earlier work
[2] = system: Japanese patients with T2DM; assay: Serum insulin concentrations, 7-day once-daily dosing; assay type: in vivo, human

CCOc1ccc(Cc2cc([C@@H]3S[C@H](CO)[C@@H](O)[C@H](O)[C@H]3O)c(OC)cc2C)cc1 [Luseogliflozin, (1S)-1,5-anhydro-1-[5-(4-ethoxybenzyl)-2-methoxy-4-methylphenyl]-1-thio-D-glucitol]
IC50 [1]: 2.26 nM
Serum insulin AUC0–4h (after breakfast) ([2]; 0.5 mg OD, Day 1): 95.0 ± 33.9 μIU h/mL
Serum insulin AUC0–4h (after breakfast) LS mean difference vs placebo (95% CI) ([2]; 0.5 mg OD, Day 1): −13.8 (−43.1, 15.6) μIU h/mL
Serum insulin AUC0–4h (after breakfast) ([2]; 0.5 mg OD, Day 7): 81.4 ± 39.4 μIU h/mL
Serum insulin AUC0–4h (after breakfast) LS mean difference vs placebo (95% CI) ([2]; 0.5 mg OD, Day 7): −32.3 (−62.8, −1.82)* μIU h/mL
Serum insulin AUC0–4h (after breakfast) ([2]; 1 mg OD, Day 1): 161 ± 67.9 μIU h/mL
Serum insulin AUC0–4h (after breakfast) LS mean difference vs placebo (95% CI) ([2]; 1 mg OD, Day 1): −12.1 (−39.4, 15.3) μIU h/mL
Serum insulin AUC0–4h (after breakfast) ([2]; 1 mg OD, Day 7): 125 ± 43.4 μIU h/mL
Serum insulin AUC0–4h (after breakfast) LS mean difference vs placebo (95% CI) ([2]; 1 mg OD, Day 7): −36.1 (−64.5, −7.72)* μIU h/mL
Serum insulin AUC0–4h (after breakfast) ([2]; 2.5 mg OD, Day 1): 101 ± 56.1 μIU h/mL
Serum insulin AUC0–4h (after breakfast) LS mean difference vs placebo (95% CI) ([2]; 2.5 mg OD, Day 1): −32.7 (−60.4, −4.93)* μIU h/mL
Serum insulin AUC0–4h (after breakfast) ([2]; 2.5 mg OD, Day 7): 75.1 ± 29.4 μIU h/mL
Serum insulin AUC0–4h (after breakfast) LS mean difference vs placebo (95% CI) ([2]; 2.5 mg OD, Day 7): −56.7 (−85.4, −27.9)* μIU h/mL
Serum insulin AUC0–4h (after breakfast) ([2]; 5 mg OD, Day 1): 190 ± 118 μIU h/mL
Serum insulin AUC0–4h (after breakfast) LS mean difference vs placebo (95% CI) ([2]; 5 mg OD, Day 1): −17.0 (−44.8, 10.8) μIU h/mL
Serum insulin AUC0–4h (after breakfast) ([2]; 5 mg OD, Day 7): 157 ± 82.5 μIU h/mL
Serum insulin AUC0–4h (after breakfast) LS mean difference vs placebo (95% CI) ([2]; 5 mg OD, Day 7): −28.6 (−57.5, 0.198) μIU h/mL
